Source: ChEMBL document CHEMBL5532639, “Heterocyclic pyrimidine derivatives as promising antibacterial agents” (Eur J Med Chem, 2023)
≈ marks a conversion by molar mass, not a printed value.

What was measured:
Salmonella typhimurium = test: Antibacterial activity against Salmonella typhimurium DT104 assessed as reduction in bacterial growth; type: functional, Salmonella enterica subsp. enterica serovar Typhimurium; settings: Salmonella enterica
Escherichia coli [1] = test: Antibacterial activity against Escherichia coli ATCC 25922 assessed as bacterial growth inhibition; type: functional
Staphylococcus aureus [2] = test: Antibacterial activity against Staphylococcus aureus ATCC 3750 assessed as reduction in bacterial growth; type: functional
Bacillus subtilis [3] = test: Antibacterial activity against Bacillus subtilis 6633 assessed as reduction in bacterial growth; type: functional
Escherichia coli [4] = test: Antimicrobial activity against Escherichia coli RCMB 010052 assessed as bacterial growth inhibition by measuring zone of inhibition at 50 ug/ml by agar cup diffusion assay; type: functional; settings: read-out: IZ
Streptococcus pneumoniae = test: Antimicrobial activity against Streptococcus […] assessed as bacterial growth inhibition by measuring zone of inhibition at 50 ug/ml by agar cup diffusion assay; type: functional; settings: read-out: IZ
Bacillus subtilis [5] = test: Antimicrobial activity against Bacillus subtilis RCMB 010069 assessed as bacterial growth inhibition by measuring zone of inhibition at 50 ug/ml by agar cup diffusion assay; type: functional; settings: read-out: IZ
Pseudomonas aeruginosa = test: Antibacterial activity against Pseudomonas aeruginosa assessed as reduction in microbial growth by measuring zone of inhibition; type: functional
Bacillus subtilis [6] = test: Antibacterial activity against Bacillus subtilis assessed as reduction in microbial growth by measuring zone of inhibition; type: functional
Escherichia coli [7] = test: Antibacterial activity against Escherichia coli assessed as reduction in microbial growth by measuring zone of inhibition; type: functional
Staphylococcus aureus [8] = test: Antibacterial activity against Staphylococcus aureus assessed as reduction in microbial growth by measuring zone of inhibition; type: functional
Staphylococcus aureus [9] = test: Antibacterial activity against Staphylococcus aureus assessed as bacterial growth inhibition by measuring zone of inhibition at 50 ug/ml by agar cup diffusion assay; type: functional; settings: read-out: IZ
Escherichia coli [10] = test: Antibacterial activity against Escherichia coli assessed as bacterial growth inhibition by measuring zone of inhibition at 50 ug/ml by agar cup diffusion assay; type: functional; settings: read-out: IZ

Structure (SMILES): Cc1nc2scc(-c3ccco3)c2c(=O)n1NC(=O)c1ccc(F)cc1F
- MIC (Salmonella typhimurium): 5 µg/mL (≈ 12.9 µM)
- MIC (Escherichia coli [1]): 4 µg/mL (≈ 10.3 µM)
- MIC (Staphylococcus aureus [2]): 4 µg/mL (≈ 10.3 µM)
- MIC (Bacillus subtilis [3]): 5 µg/mL (≈ 12.9 µM)

Structure (SMILES): Nc1nc2ncnn2c(-c2ccc(Br)cc2)c1C(=O)c1ccc(C(=O)O)cc1
- zone of inhibition at 50 µg/mL (Escherichia coli [4]): 18.3 mm
- zone of inhibition at 50 µg/mL (Streptococcus pneumoniae): 21.3 mm
- zone of inhibition at 50 µg/mL (Bacillus subtilis [5]): 28.9 mm

Structure (SMILES): O=C1OC(c2ccc(C(=O)O)cc2)N=C1/C=C/c1ccc(C(=O)c2ccco2)cc1 (stereo not drawn)
- zone of inhibition at 50 µg/mL (Escherichia coli [4]): 16.7 mm
- zone of inhibition at 50 µg/mL (Streptococcus pneumoniae): 19.3 mm
- zone of inhibition at 50 µg/mL (Bacillus subtilis [5]): 21.2 mm

Structure (SMILES): Cc1ccc(-c2c(C(=O)c3ccc(C(=O)O)cc3)c(N)nc3ncnn23)cc1
- zone of inhibition at 50 µg/mL (Escherichia coli [4]): 16.6 mm
- zone of inhibition at 50 µg/mL (Streptococcus pneumoniae): 20.7 mm
- zone of inhibition at 50 µg/mL (Bacillus subtilis [5]): 26.8 mm

Structure (SMILES): Cc1nc2scc(-c3ccco3)c2c(=O)n1/N=C/c1ccc(F)cc1F
- MIC (Salmonella typhimurium): 6 µg/mL (≈ 16.2 µM)
- MIC (Escherichia coli [1]): 5 µg/mL (≈ 13.5 µM)
- MIC (Staphylococcus aureus [2]): 5 µg/mL (≈ 13.5 µM)
- MIC (Bacillus subtilis [3]): 4 µg/mL (≈ 10.8 µM)

Structure (SMILES): Oc1ccccc1/C=N/Nc1nc(SCc2ccccc2)ncc1I
- inhibition zone (IZ) (Pseudomonas aeruginosa): 18 mm
- inhibition zone (IZ) (Bacillus subtilis [6]): 13 mm
- inhibition zone (IZ) (Escherichia coli [7]): 7 mm
- inhibition zone (IZ) (Staphylococcus aureus [8]): 15 mm

Structure (SMILES): COc1ccc(-c2c(C(=O)c3ccc(C(=O)O)cc3)c(N)nc3nc4ccccc4n23)cc1
- zone of inhibition at 50 µg/mL (Escherichia coli [4]): 17.9 mm
- zone of inhibition at 50 µg/mL (Streptococcus pneumoniae): 19.3 mm
- zone of inhibition at 50 µg/mL (Bacillus subtilis [5]): 24.7 mm

Structure (SMILES): Cc1nc2scc(-c3ccco3)c2c(=O)n1NC(=O)c1ccc(Cl)cc1Cl
- MIC (Salmonella typhimurium): 6 µg/mL (≈ 14.3 µM)
- MIC (Escherichia coli [1]): 6 µg/mL (≈ 14.3 µM)
- MIC (Staphylococcus aureus [2]): 5 µg/mL (≈ 11.9 µM)
- MIC (Bacillus subtilis [3]): 4 µg/mL (≈ 9.52 µM)

Structure (SMILES): O=C1OC(c2ccc(C(=O)O)cc2)N=C1/C=C/c1ccc(C(=O)c2ccc(Cl)cc2)cc1 (stereo not drawn)
- zone of inhibition at 50 µg/mL (Escherichia coli [4]): 18.2 mm
- zone of inhibition at 50 µg/mL (Streptococcus pneumoniae): 21.8 mm
- zone of inhibition at 50 µg/mL (Bacillus subtilis [5]): 24.3 mm

Structure (SMILES): Cc1nc2scc(-c3ccco3)c2c(=O)n1NC(=O)c1ccc([N+](=O)[O-])cc1
- MIC (Salmonella typhimurium): 5 µg/mL (≈ 12.6 µM)
- MIC (Escherichia coli [1]): 7 µg/mL (≈ 17.7 µM)
- MIC (Staphylococcus aureus [2]): 6 µg/mL (≈ 15.1 µM)
- MIC (Bacillus subtilis [3]): 5 µg/mL (≈ 12.6 µM)

Structure (SMILES): O=C1OC(c2ccc(C(=O)O)cc2)N=C1/C=C/c1ccc(C(=O)c2ccccc2)cc1 (stereo not drawn)
- zone of inhibition at 50 µg/mL (Escherichia coli [4]): 17 mm
- zone of inhibition at 50 µg/mL (Streptococcus pneumoniae): 19.3 mm
- zone of inhibition at 50 µg/mL (Bacillus subtilis [5]): 23.7 mm

Structure (SMILES): O=C1OC(c2ccc(C(=O)O)cc2)N=C1/C=C/c1ccc(C(=O)c2cccs2)cc1 (stereo not drawn)
- zone of inhibition at 50 µg/mL (Escherichia coli [4]): 17.9 mm
- zone of inhibition at 50 µg/mL (Streptococcus pneumoniae): 18.6 mm
- zone of inhibition at 50 µg/mL (Bacillus subtilis [5]): 22.3 mm

Structure (SMILES): Clc1ccc(/C=N/Nc2nc(SCc3ccccc3)ncc2I)cc1
- inhibition zone (IZ) (Pseudomonas aeruginosa): 18 mm
- inhibition zone (IZ) (Bacillus subtilis [6]): 10 mm
- inhibition zone (IZ) (Escherichia coli [7]): 8 mm
- inhibition zone (IZ) (Staphylococcus aureus [8]): 10 mm

Structure (SMILES): O=[N+]([O-])c1ccc(Nc2nc(SCc3ccccc3)ncc2I)cc1
- inhibition zone (IZ) (Pseudomonas aeruginosa): 10 mm
- inhibition zone (IZ) (Bacillus subtilis [6]): 14 mm
- inhibition zone (IZ) (Escherichia coli [7]): 5 mm
- inhibition zone (IZ) (Staphylococcus aureus [8]): 16 mm

Structure (SMILES): Cc1nc2scc(-c3ccco3)c2c(=O)n1/N=C/c1ccc([N+](=O)[O-])cc1
- MIC (Salmonella typhimurium): 12 µg/mL (≈ 31.5 µM)
- MIC (Escherichia coli [1]): 12 µg/mL (≈ 31.5 µM)
- MIC (Staphylococcus aureus [2]): 11 µg/mL (≈ 28.9 µM)
- MIC (Bacillus subtilis [3]): 11 µg/mL (≈ 28.9 µM)

Structure (SMILES): COc1cc(-c2cc(-c3cc(F)c(Cl)cc3Cl)nc(NC(=O)CSc3nnc(-c4cccnc4N4CCOCC4)o3)n2)cc(OC)c1OC
- zone of inhibition at 50 µg/mL (Staphylococcus aureus [9]): 9 mm
- zone of inhibition at 50 µg/mL (Escherichia coli [10]): 14 mm

Structure (SMILES): Ic1cnc(SCc2ccccc2)nc1N/N=C/c1c(-c2ccccc2)c(-c2ccccc2)nn1-c1ccccc1
- inhibition zone (IZ) (Pseudomonas aeruginosa): 16 mm
- inhibition zone (IZ) (Bacillus subtilis [6]): 20 mm
- inhibition zone (IZ) (Escherichia coli [7]): 10 mm
- inhibition zone (IZ) (Staphylococcus aureus [8]): 18 mm

Structure (SMILES): O=C(CSc1nnc(-c2cccnc2N2CCOCC2)o1)Nc1nc(-c2ccc(F)cc2)cc(-c2cc(F)c(Cl)cc2Cl)n1
- zone of inhibition at 50 µg/mL (Staphylococcus aureus [9]): 11 mm
- zone of inhibition at 50 µg/mL (Escherichia coli [10]): 11 mm

Structure (SMILES): Cc1nc2scc(-c3ccco3)c2c(=O)n1/N=C/c1ccc(Cl)cc1Cl
- MIC (Salmonella typhimurium): 5 µg/mL (≈ 12.4 µM)
- MIC (Escherichia coli [1]): 6 µg/mL (≈ 14.8 µM)
- MIC (Staphylococcus aureus [2]): 4 µg/mL (≈ 9.89 µM)
- MIC (Bacillus subtilis [3]): 4 µg/mL (≈ 9.89 µM)

Structure (SMILES): COc1ccc(/C=N/Nc2nc(SCc3ccccc3)ncc2I)cc1O
- inhibition zone (IZ) (Pseudomonas aeruginosa): 19 mm
- inhibition zone (IZ) (Bacillus subtilis [6]): 13 mm
- inhibition zone (IZ) (Escherichia coli [7]): 4 mm
- inhibition zone (IZ) (Staphylococcus aureus [8]): 12 mm

Structure (SMILES): Nc1ncccc1/C=N/Nc1nc(SCc2ccccc2)ncc1I
- inhibition zone (IZ) (Pseudomonas aeruginosa): 18 mm
- inhibition zone (IZ) (Bacillus subtilis [6]): 17 mm
- inhibition zone (IZ) (Escherichia coli [7]): 7 mm
- inhibition zone (IZ) (Staphylococcus aureus [8]): 18 mm
